Here are results for 2 compounds from patent US11179415B1 (priority 2020, dated 2021).

One series relates to common cold. Kind of series: inventor's self-use of CLO2 to prevent the common cold. In kind it is in vivo, human. The note with it: 5 ppm CLO2 nasal drops only, several drops per nostril 2 times per day, 3 days from prodromal period; one person.
A further series deals with SARS CoV-2. The note with it: in vivo.
A further series deals with Coronavirus SARS CoV-2. Conditions: Fact Sheet, National Agricultural Biosecurity Center, Kansas State University; cited from earlier work.
The test system of the next series is human Coronavirus. The note with it: BASF Aseptrol Label, EPA Registration Number 70060-19; cited from earlier work.
The conditions of series [1]: man; daily ingestion of 500 ml CLO2 at 5 ppm; cited from earlier work.
For series [2] the following is noted: rat; in drinking water up to several months; doses as high as 1000 mg/liter (1000 ppm or 0.1%); cited from earlier work.
For series [3] the following is noted: mouse; in drinking water up to several months; doses as high as 1000 mg/liter (1000 ppm or 0.1%); cited from earlier work.
For series [4] the following is noted: chicken; in drinking water up to several months; doses as high as 1000 mg/liter (1000 ppm or 0.1%); cited from earlier work.
For series [5] the following is noted: OSHA, cited from earlier work.

Where two headings read alike, the source gives them in different places.

As for `[O][Cl+][O-]` [CLO2, chlorine dioxide], in the series on common cold, the “development of a common cold” value was “a cold never developed”. Further, the “lung irritation after inhalation of aerosol fog” value in the series with SARS CoV-2 is recorded as “no resulting lung irritation”. The “symptoms after contracting SARS CoV-2” value with SARS CoV-2 is listed as “only little to slight symptoms”. Also, in the series with Coronavirus SARS CoV-2, the “virucidal activity against SARS CoV-2” value is “kills the Coronavirus SARS CoV-2”. Moreover, in the series with human Coronavirus, the “efficacy against human Coronavirus” value is given as “effective against human Coronavirus”. Besides, the “tolerability of daily ingestion” value in [1] was “safely tolerated”. Further, the methemoglobin concentrations result in [2], in series [3] and in series [4] was “no significant increases” in each case. The “concentration safe for an 8-hour exposure” value in series [5] (8-hour exposure) was 0.1 ppm. Also, the “concentration safe for short-time exposure limit (STEL)” value in series [5] (STEL of 15 minutes) was 0.3 ppm.

As for `[O-][Cl+2]([O-])O` [CLO3], the methemoglobin concentrations entry in series [2], in series [3] and in series [4] was “no significant increases” in each case.
